What was measured:
human PDE5 = biological target: T1, human PDE5 (Homo sapiens, UniProt O76074); assay: Inhibition of PDE5 activity (platelet lysate, SPA assay); assay type: biochemical; settings: 0.5 μM cGMP, read-out: PDE5 Inhibitory values measured as -logIC50 (converted)
T1 construct: from tissue; host or cells: human platelets from fresh donor blood (platelet lysate)
In short: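 SPA readout of [3H]cGMP hydrolysis (0.5 μM, 15 min, 37 °C after 5 min preincubation), stopped with yttrium silicate beads containing IBMX. Enzyme was lysate from human platelets, used at 10–20% substrate turnover, with PDE3 (motapizone 1 μM) and PDE2 (10 nM) blockers present. IC50 values fitted non-linearly from concentration-effect curves.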

PDE4B1 = biological target: T2, PDE4B1 (Homo sapiens, UniProt Q07343); assay: Inhibition of PDE4 activity (PDE4B1, SPA assay); assay type: biochemical; settings: recombinant PDE4B1, 0.5 μM cAMP; read-out: PDE4B1 Inhibitory values measured as -logIC50 (converted)
T2 construct: made in house; host or cells: SF21 insect cells (baculovirus; virus made in SF9 cells, pCR-Bac vector)
T2 sequence (Q07343 whole entry): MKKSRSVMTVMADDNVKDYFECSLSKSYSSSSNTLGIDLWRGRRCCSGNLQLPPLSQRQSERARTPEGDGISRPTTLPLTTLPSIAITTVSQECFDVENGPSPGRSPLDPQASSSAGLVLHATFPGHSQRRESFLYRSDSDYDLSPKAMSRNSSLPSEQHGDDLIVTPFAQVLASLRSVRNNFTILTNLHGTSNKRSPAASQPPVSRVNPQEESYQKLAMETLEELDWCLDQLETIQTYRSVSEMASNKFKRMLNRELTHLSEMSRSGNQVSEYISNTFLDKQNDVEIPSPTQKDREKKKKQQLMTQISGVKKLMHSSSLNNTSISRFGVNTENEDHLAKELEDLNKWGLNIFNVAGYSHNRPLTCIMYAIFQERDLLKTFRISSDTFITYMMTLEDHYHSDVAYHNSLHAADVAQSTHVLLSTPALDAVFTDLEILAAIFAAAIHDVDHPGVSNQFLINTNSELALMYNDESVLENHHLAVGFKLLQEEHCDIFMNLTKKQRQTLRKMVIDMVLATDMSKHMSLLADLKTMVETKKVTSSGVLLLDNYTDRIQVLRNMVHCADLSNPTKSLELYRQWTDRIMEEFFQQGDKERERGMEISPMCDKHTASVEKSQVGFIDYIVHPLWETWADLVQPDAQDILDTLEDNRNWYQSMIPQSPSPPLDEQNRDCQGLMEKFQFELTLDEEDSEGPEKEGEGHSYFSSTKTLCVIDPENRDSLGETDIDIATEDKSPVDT
In short: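 Read-out is SPA yttrium silicate bead scintillation after IBMX-containing beads stop the reaction. Insect-cell (SF21) lysate enzyme hydrolysed 0.5 μM [3H]cAMP at pH 7.4 with 5 mM Mg2+ for 15 min after a 5 min 37 °C preincubation; IC50 fitted by non-linear regression.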

| SMILES | IC50 (human PDE5) [nM] | IC50 (PDE4B1) [nM] |
| --- | --- | --- |
| COc1ccc(C2=NN(C3CCN(C(=O)CNC(=O)c4c[nH]c5c(-c6c(OCC7CC7)ccc7c6OCO7)ncnc45)CC3)C(=O)C(C)(C)C2)c2c1OC(C)(C)C2 [Example 117, 4-[5-(cyclopropylmethoxy)-1,3-benzodioxol-4-yl]-N-(2-{4-[3-(7-methoxy-2,2-dimethyl-2,3-dihydro-1-benzofuran-4-yl)-5,5-dimethyl-6-oxo-5,6-dihydropyridazin-1(4H)-yl]piperidin-1-yl}-2-oxoethyl)-5H-pyrrolo[3,2-d]pyrimidine-7-carboxamide] | 1 to 10 | 1 to 10 |
| COc1ccc(C2=NN(C3CCN(C(=O)[C@H](CO)NC(=O)c4c[nH]c5c(-c6c(OCC7CC7)ccc7c6OCO7)ncnc45)CC3)C(=O)[C@@H]3CCCC[C@H]23)cc1OC [Example 60, 4-[5-(cyclopropylmethoxy)-1,3-benzodioxol-4-yl]-N-[(2S)-1-{4-[(4aS,8aR)-4-(3,4-dimethoxyphenyl)-1-oxo-4a,5,6,7,8,8a-hexahydrophthalazin-2(1H)-yl]piperidin-1-yl}-3-hydroxy-1-oxopropan-2-yl]-5H-pyrrolo[3,2-d]pyrimidine-7-carboxamide] | 1 to 10 | < 1 |
| COc1ccc(C2=NN(C3CCN(C(=O)[C@@H](Cc4cccc(C)c4)NC(=O)c4c[nH]c5c(-c6c(OCC7CC7)ccc7c6OCO7)ncnc45)CC3)C(=O)[C@@H]3CCCC[C@H]23)cc1OC [Example 20, 4-[5-(cyclopropylmethoxy)-1,3-benzodioxol-4-yl]-N-[(2R)-1-{4-[(4aS,8aR)-4-(3,4-dimethoxyphenyl)-1-oxo-4a,5,6,7,8,8a-hexahydrophthalazin-2(1H)-yl]piperidin-1-yl}-3-(3-methylphenyl)-1-oxopropan-2-yl]-5H-pyrrolo[3,2-d]pyrimidine-7-carboxamide] | < 1 | 1 to 10 |
| CC[C@H](C)[C@H](NC(=O)c1c[nH]c2c(-c3c(OCC4CC4)ccc4c3OCO4)ncnc12)C(=O)N1CCC(N2N=C(c3ccc(OC)c(OC)c3)[C@H]3CCCC[C@H]3C2=O)CC1 [Example 71, 4-[5-(cyclopropylmethoxy)-1,3-benzodioxol-4-yl]-N-[(2S,3S)-1-{4-[(4aS,8aR)-4-(3,4-dimethoxyphenyl)-1-oxo-4a,5,6,7,8,8a-hexahydrophthalazin-2(1H)-yl]piperidin-1-yl}-3-methyl-1-oxopentan-2-yl]-5H-pyrrolo[3,2-d]pyrimidine-7-carboxamide] | 1 to 10 | < 1 |
| COc1ccc(C2=NN(C3CCN(C(=O)[C@@H](Cc4ccc(F)cc4)NC(=O)c4c[nH]c5c(-c6c(OCC7CC7)ccc7c6OCO7)ncnc45)CC3)C(=O)[C@@H]3CCCC[C@H]23)cc1OC [Example 28, 4-[5-(cyclopropylmethoxy)-1,3-benzodioxol-4-yl]-N-[(2R)-1-{4-[(4aS,8aR)-4-(3,4-dimethoxyphenyl)-1-oxo-4a,5,6,7,8,8a-hexahydrophthalazin-2(1H)-yl]piperidin-1-yl}-3-(4-fluorophenyl)-1-oxopropan-2-yl]-5H-pyrrolo[3,2-d]pyrimidine-7-carboxamide] | < 1 | < 1 |
| COc1ccc(C2=NN(C3CCN(C(=O)[C@@H](CCC(=O)N(C)C)NC(=O)c4c(C)[nH]c5c(-c6c(OCC7CC7)ccc7c6OCO7)ncnc45)CC3)C(=O)C(C)(C)C2)cc1OC [Example 118, 4-[5-(cyclopropylmethoxy)-1,3-benzodioxol-4-yl]-N-[(2R)-1-{4-[3-(3,4-dimethoxyphenyl)-5,5-dimethyl-6-oxo-5,6-dihydropyridazin-1(4H)-yl]piperidin-1-yl}-5-(dimethylamino)-1,5-dioxopentan-2-yl]-6-methyl-5H-pyrrolo[3,2-d]pyrimidine-7-carboxamide] | < 1 | 1 to 10 |
| COc1ccc(C2=NN(C3CCN(C(=O)[C@H](Cc4cccnc4)NC(=O)c4c[nH]c5c(-c6c(OCC7CC7)ccc7c6OCO7)ncnc45)CC3)C(=O)[C@@H]3CCCC[C@H]23)cc1OC [Example 43, 4-[5-(cyclopropylmethoxy)-1,3-benzodioxol-4-yl]-N-[(2S)-1-{4-[(4aS,8aR)-4-(3,4-dimethoxyphenyl)-1-oxo-4a,5,6,7,8,8a-hexahydrophthalazin-2(1H)-yl]piperidin-1-yl}-1-oxo-3-(pyridin-3-yl)propan-2-yl]-5H-pyrrolo[3,2-d]pyrimidine-7-carboxamide] | < 1 | < 1 |
| COc1cc(OCC2CC2)c(-c2ncnc3c(C(=O)N[C@H](Cc4ccccc4)C(=O)N4CCC(N5N=C(c6ccc(OC)c(OC)c6)CC(C)(C)C5=O)CC4)c(C)[nH]c23)cc1F [Example 69, 4-[2-(cyclopropylmethoxy)-5-fluoro-4-methoxyphenyl]-N-[(2R)-1-{4-[3-(3,4-dimethoxyphenyl)-5,5-dimethyl-6-oxo-5,6-dihydropyridazin-1(4H)-yl]piperidin-1-yl}-1-oxo-3-phenylpropan-2-yl]-6-methyl-5H-pyrrolo[3,2-d]pyrimidine-7-carboxamide] | 1 to 10 | 1 to 10 |
| COc1ccc(C2=NN(C3CCN(C(=O)[C@@H](Cc4ccc(C(C)(C)C)cc4)NC(=O)c4c[nH]c5c(-c6c(OCC7CC7)ccc7c6OCO7)ncnc45)CC3)C(=O)[C@@H]3CCCC[C@H]23)cc1OC [Example 6, N-[(2R)-3-(4-tert-butylphenyl)-1-{4-[(4aS,8aR)-4-(3,4-dimethoxyphenyl)-1-oxo-4a,5,6,7,8,8a-hexahydrophthalazin-2(1H)-yl]piperidin-1-yl}-1-oxopropan-2-yl]-4-[5-(cyclopropylmethoxy)-1,3-benzodioxol-4-yl]-5H-pyrrolo[3,2-d]pyrimidine-7-carboxamide] | 1 to 10 | 1 to 10 |
| COc1ccc(C2=NN(C3CCN(C(=O)[C@@H](CCC(=O)NC(C)C)NC(=O)c4c[nH]c5c(-c6c(OCC7CC7)ccc7c6OCO7)ncnc45)CC3)C(=O)[C@@H]3CCCC[C@H]23)cc1OC [Example 107, 4-[5-(cyclopropylmethoxy)-1,3-benzodioxol-4-yl]-N-[(2R)-1-{4-[(4aS,8aR)-4-(3,4-dimethoxyphenyl)-1-oxo-4a,5,6,7,8,8a-hexahydrophthalazin-2(1H)-yl]piperidin-1-yl}-1,5-dioxo-5-(propan-2-ylamino)pentan-2-yl]-5H-pyrrolo[3,2-d]pyrimidine-7-carboxamide] | 1 to 10 | 1 to 10 |
| COc1ccc(C2=NN(C3CCN(C(=O)[C@@H](Cc4ccccc4)NC(=O)c4c[nH]c5c(-c6c(OCC7CC7)ccc7c6OCO7)ncnc45)CC3)C(=O)C3(CCCC3)C2)cc1OC [Example 123, 4-[5-(cyclopropylmethoxy)-1,3-benzodioxol-4-yl]-N-[(2R)-1-{4-[9-(3,4-dimethoxyphenyl)-6-oxo-7,8-diazaspiro[4.5]dec-8-en-7-yl]piperidin-1-yl}-1-oxo-3-phenylpropan-2-yl]-5H-pyrrolo[3,2-d]pyrimidine-7-carboxamide] | 1 to 10 | 1 to 10 |
| COc1ccc(C2=NN(C3CCN(C(=O)[C@@H](Cc4ccccc4C(F)(F)F)NC(=O)c4c(C)[nH]c5c(-c6c(OCC7CC7)ccc7c6OCO7)ncnc45)CC3)C(=O)[C@@H]3CCCC[C@H]23)cc1OC [Example 32, 4-[5-(cyclopropylmethoxy)-1,3-benzodioxol-4-yl]-N-{(2R)-1-{4-[(4aS,8aR)-4-(3,4-dimethoxyphenyl)-1-oxo-4a,5,6,7,8,8a-hexahydrophthalazin-2(1H)-yl]piperidin-1-yl}-1-oxo-3-[2-(trifluoromethyl)phenyl]propan-2-yl}-6-methyl-5H-pyrrolo[3,2-d]pyrimidine-7-carboxamide] | 1 to 10 | 1 to 10 |
| COc1ccc(C2=NN(C3CCN(C(=O)[C@@H](Cc4cn(C)c5ccccc45)NC(=O)c4c[nH]c5c(-c6c(OCC7CC7)ccc7c6OCO7)ncnc45)CC3)C(=O)[C@@H]3CCCC[C@H]23)cc1OC [Example 93, 4-[5-(cyclopropylmethoxy)-1,3-benzodioxol-4-yl]-N-[(2R)-1-{4-[(4aS,8aR)-4-(3,4-dimethoxyphenyl)-1-oxo-4a,5,6,7,8,8a-hexahydrophthalazin-2(1H)-yl]piperidin-1-yl}-3-(1-methyl-1H-indol-3-yl)-1-oxopropan-2-yl]-5H-pyrrolo[3,2-d]pyrimidine-7-carboxamide] | 1 to 10 | < 1 |
| COc1ccc(C2=NN(C3CCN(C(=O)[C@@H](Cc4ccc(C#N)cc4)NC(=O)c4c[nH]c5c(-c6c(OCC7CC7)ccc7c6OCO7)ncnc45)CC3)C(=O)[C@@H]3CCCC[C@H]23)cc1OC [Example 16, N-[(2R)-3-(4-cyanophenyl)-1-{4-[(4aS,8aR)-4-(3,4-dimethoxyphenyl)-1-oxo-4a,5,6,7,8,8a-hexahydrophthalazin-2(1H)-yl]piperidin-1-yl}-1-oxopropan-2-yl]-4-[5-(cyclopropylmethoxy)-1,3-benzodioxol-4-yl]-5H-pyrrolo[3,2-d]pyrimidine-7-carboxamide] | 1 to 10 | 1 to 10 |
| COc1ccc(C2=NN(C3CCN(C(=O)[C@H](Cc4cccs4)NC(=O)c4c(C)[nH]c5c(-c6c(OCC7CC7)ccc7c6OCO7)ncnc45)CC3)C(=O)[C@@H]3CCCC[C@H]23)cc1OC [Example 74, 4-[5-(cyclopropylmethoxy)-1,3-benzodioxol-4-yl]-N-[(2S)-1-{4-[(4aS,8aR)-4-(3,4-dimethoxyphenyl)-1-oxo-4a,5,6,7,8,8a-hexahydrophthalazin-2(1H)-yl]piperidin-1-yl}-1-oxo-3-(thiophen-2-yl)propan-2-yl]-6-methyl-5H-pyrrolo[3,2-d]pyrimidine-7-carboxamide] | < 1 | < 1 |
